From the supplement of paper PMC10307832

Columns and labels:
Experiment in all cases: relative viability (nuclei count vs DMSO), 5 days (fraction); higher = more cells survive
Bexarotene = compound: C=C(c1ccc(C(=O)O)cc1)c1cc2c(cc1C)C(C)(C)CCC2(C)C [Bexarotene]
Outline: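 Lung cancer cell lines in 1536-well plates were exposed by pinning to five library-drug doses (not always all listed) √10 apart, following an overnight hold at 37 °C. MetaXpress counted Hoechst-stained nuclei from 4× images taken after 5 days without medium change. Viability is the median ratio of treated-well to vehicle-well nuclei across plates. Plates required control CV below 25% and at least one doubling.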

Bexarotene + Trametinib = compound: C=C(c1ccc(C(=O)O)cc1)c1cc2c(cc1C)C(C)(C)CCC2(C)C [Bexarotene] + CC(=O)Nc1cccc(-n2c(=O)n(C3CC3)c(=O)c3c(Nc4ccc(I)cc4F)n(C)c(=O)c(C)c32)c1 [Trametinib] (partner 0.02 µM)
Outline: (§1)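 One day after seeding in 1536-well plates, lung cancer cell lines were dosed by pin tool. Dosing was either single-drug or a fixed anchor-drug dose plus five library-drug doses (not always all listed) in √10 steps. After 5 days, nuclei were stained in one fix-and-stain step and counted on 4× images, and relative viability is the nuclei count of treated wells over that of vehicle wells, given as the median of duplicate plates.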

Bexarotene + Tozasertib = compound: C=C(c1ccc(C(=O)O)cc1)c1cc2c(cc1C)C(C)(C)CCC2(C)C [Bexarotene] + Cc1cc(Nc2cc(N3CCN(C)CC3)nc(Sc3ccc(NC(=O)C4CC4)cc3)n2)n[nH]1 [Tozasertib] (partner 0.1 µM)
Outline: as §1

Bexarotene + AZD7762 = compound: C=C(c1ccc(C(=O)O)cc1)c1cc2c(cc1C)C(C)(C)CCC2(C)C [Bexarotene] + NC(=O)Nc1cc(-c2cccc(F)c2)sc1C(=O)N[C@H]1CCCNC1 [AZD7762] (partner 0.2 µM)
Outline: as §1

| Cell Line | relative viability (Bexarotene; 0.08 µM) | relative viability (Bexarotene; 0.253 µM) | relative viability (Bexarotene; 0.8 µM) | relative viability (Bexarotene; 2.53 µM) | relative viability (Bexarotene; 8 µM) | relative viability (Bexarotene + Trametinib; first compound 0.08 µM) | relative viability (Bexarotene + Trametinib; first compound 0.253 µM) | relative viability (Bexarotene + Trametinib; first compound 0.8 µM) | relative viability (Bexarotene + Trametinib; first compound 2.53 µM) | relative viability (Bexarotene + Trametinib; first compound 8 µM) | relative viability (Bexarotene + Tozasertib; first compound 0.08 µM) | relative viability (Bexarotene + Tozasertib; first compound 0.253 µM) | relative viability (Bexarotene + Tozasertib; first compound 0.8 µM) | relative viability (Bexarotene + Tozasertib; first compound 8 µM) | relative viability (Bexarotene + AZD7762; first compound 0.08 µM) | relative viability (Bexarotene + AZD7762; first compound 0.253 µM) | relative viability (Bexarotene + AZD7762; first compound 0.8 µM) | relative viability (Bexarotene + AZD7762; first compound 2.53 µM) | relative viability (Bexarotene + AZD7762; first compound 8 µM) | relative viability (Bexarotene + Tozasertib; first compound 2.53 µM) |
| --- | --- | --- | --- | --- | --- | --- | --- | --- | --- | --- | --- | --- | --- | --- | --- | --- | --- | --- | --- | --- |
| LK-2 | 1.32 | 0.942 | 1.04 | 0.977 | 0.998 | 0.838 | 0.895 | 0.779 | 0.719 | 0.915 | 0.175 | 0.162 | 0.185 | 0.165 | 0.675 | 0.516 | 0.547 | 0.433 | 0.418 |  |
| NCI-H1993 | 1.09 | 0.919 | 0.788 | 0.862 | 0.832 | 0.547 | 0.541 | 0.507 | 0.395 | 0.544 | 0.544 | 0.576 | 0.604 | 0.613 | 0.805 | 0.83 | 0.618 | 0.851 | 0.636 | 0.527 |
| NCI-H838 | 1.04 | 1.03 | 1.04 | 1.04 | 0.996 | 0.551 | 0.611 | 0.545 | 0.657 | 0.585 | 0.269 | 0.301 | 0.267 | 0.271 | 1.03 | 1.09 | 0.989 | 0.978 | 0.938 | 0.278 |
| NCI-H1437 | 1.04 | 1.01 | 1.03 | 0.996 | 1.01 | 0.552 | 0.508 | 0.488 | 0.482 | 0.459 | 0.382 | 0.395 | 0.396 | 0.382 | 1.2 | 1.14 | 1.19 | 1.14 | 1.15 | 0.421 |
| NCI-H2170 | 0.96 | 0.969 | 0.942 | 0.909 | 0.831 | 0.901 | 0.916 | 0.886 | 0.785 | 0.768 | 0.729 | 0.631 | 0.654 | 0.614 | 0.877 | 0.796 | 0.812 | 0.775 | 0.735 | 0.63 |
| SW 900 | 0.874 | 0.948 | 0.726 | 0.684 | 0.888 | 0.635 | 0.846 | 0.85 | 0.81 | 0.647 | 0.559 | 0.617 | 0.589 | 0.431 | 0.652 | 0.511 | 0.453 | 0.518 | 0.454 | 0.498 |
| LCLC-103H | 1.09 | 1.03 | 0.849 | 0.983 | 1.05 | 0.761 | 0.697 | 0.678 | 0.663 | 0.764 | 0.531 | 0.452 | 0.428 | 0.43 | 0.807 | 0.78 | 0.64 | 0.796 | 0.842 | 0.48 |
| NCI-H441 | 1.31 | 1.1 | 1.04 | 0.969 | 1 | 0.568 | 0.481 | 0.669 | 0.527 | 0.633 | 0.709 | 0.758 | 0.631 | 0.656 | 1.5 | 1.28 | 1.24 | 1.1 | 1.01 | 0.676 |
| BEN | 1.01 | 0.822 | 0.868 | 0.752 | 0.87 | 0.994 | 1.02 | 0.943 | 0.804 | 0.997 | 0.462 | 0.475 | 0.499 | 0.493 | 0.759 | 0.585 | 0.613 | 0.612 | 0.695 | 0.444 |
| LC-2-ad | 0.989 | 1.08 | 1.06 | 1 | 0.98 | 1.06 | 0.941 | 0.96 | 0.968 | 0.948 | 0.438 | 0.503 | 0.408 | 0.434 | 0.87 | 0.907 | 0.875 | 0.867 | 0.928 | 0.41 |
| RERF-LC-KJ | 0.96 | 0.969 | 0.909 | 0.87 | 0.847 | 0.879 | 0.85 | 0.814 | 0.873 | 0.799 | 0.459 | 0.585 | 0.415 | 0.542 | 0.97 | 0.918 | 0.873 | 1.03 | 0.849 | 0.467 |
| NCI-H522 | 1.14 | 0.872 | 0.957 | 0.816 | 1.02 | 0.736 | 0.805 | 0.74 | 0.797 | 0.736 | 0.551 | 0.523 | 0.562 | 0.634 | 0.788 | 0.949 | 0.734 | 0.697 | 0.822 | 0.506 |
| NCI-H1915 | 1.13 | 1.05 | 0.999 | 0.951 | 0.904 | 0.297 | 0.286 | 0.266 | 0.255 | 0.218 | 0.465 | 0.492 | 0.425 | 0.376 | 0.707 | 0.724 | 0.674 | 0.653 | 0.655 | 0.339 |
| NCI-H596 | 0.956 | 0.848 | 0.957 | 0.994 | 0.919 | 0.862 | 0.876 | 0.654 | 0.762 | 0.802 | 0.998 | 0.897 | 0.788 | 0.837 | 1.19 | 1.01 | 1.01 | 0.976 | 1.02 | 0.934 |
| NCI-H2126 | 1.02 | 1.01 | 0.954 | 0.991 | 0.971 | 0.639 | 0.56 | 0.553 | 0.619 | 0.54 | 0.881 | 0.869 | 0.793 | 0.829 | 1.07 | 0.971 | 0.916 | 0.994 | 1.02 | 0.818 |
| LXF-289 | 1.19 | 1.18 | 1.16 | 1.17 | 1.29 | 0.797 | 0.832 | 0.792 | 0.755 | 0.747 | 0.166 | 0.196 | 0.213 | 0.141 | 1.21 | 1.34 | 1.32 | 1.37 | 1.48 | 0.137 |
